Measurements taken from ChEMBL document CHEMBL4808216, “Gut-Restricted Selective Cyclooxygenase-2 (COX-2) Inhibitors for Chemoprevention of Colorectal Cancer” (J Med Chem, 2021).
Converted amounts (≈) assume the structure as drawn. The source made the active and inactive calls. No cut-off for these calls is given here.

Key:
[1] = target: T1, Prostaglandin G/H synthase 2 (Homo sapiens, UniProt P35354); test: Inhibition of COX2 (unknown origin) expressed in HEK293 TRex cells assessed as reduction in PGE2 production using arachidonic acid as substrate preincubated for 60 mins followed by substrate addition for 1 hr in presence of 10% FBS by RapidFire High-Throughput Mass Spectrometry; type: cell-based, HEK293-T-REx
T1 sequence (P35354 whole entry): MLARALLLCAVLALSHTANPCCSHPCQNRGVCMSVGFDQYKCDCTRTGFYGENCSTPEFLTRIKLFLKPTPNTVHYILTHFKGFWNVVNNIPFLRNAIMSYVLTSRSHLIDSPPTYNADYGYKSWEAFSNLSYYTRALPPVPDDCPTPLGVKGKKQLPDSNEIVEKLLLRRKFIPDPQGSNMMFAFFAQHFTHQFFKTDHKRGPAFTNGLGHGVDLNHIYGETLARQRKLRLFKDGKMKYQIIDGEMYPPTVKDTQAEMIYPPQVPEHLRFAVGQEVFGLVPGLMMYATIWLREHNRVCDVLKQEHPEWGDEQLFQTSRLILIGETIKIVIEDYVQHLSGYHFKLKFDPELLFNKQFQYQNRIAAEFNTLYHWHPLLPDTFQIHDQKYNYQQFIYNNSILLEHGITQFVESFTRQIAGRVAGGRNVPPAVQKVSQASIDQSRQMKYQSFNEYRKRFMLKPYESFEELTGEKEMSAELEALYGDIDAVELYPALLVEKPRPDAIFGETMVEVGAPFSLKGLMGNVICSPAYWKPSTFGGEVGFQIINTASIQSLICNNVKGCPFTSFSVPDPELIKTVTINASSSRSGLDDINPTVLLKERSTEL

[2] = target: T1, Prostaglandin G/H synthase 2; test: Inhibition of COX2 in human whole blood assessed as reduction in LPS stimulated PGE2 production incubated for 1 hr by ELISA; type: tissue-based
[3] = target: T1, Prostaglandin G/H synthase 2; test: Inhibition of human recombinant COX-2 assessed as reduction in peroxidase activity using arachidonic acid as substrate preincubated for 60 mins followed by substrate addition for 2 secs by ADPH based fluorometric analysis
[4] = target: T2, Prostaglandin G/H synthase 2 (Mus musculus, UniProt Q05769); test: In vivo inhibition of COX2 in po dosed C57BL/6J mouse model of spontaneous GI-tract tumor Apc-min assessed as chemopreventive effect by measuring reduction in polyp area and relevant ileum exposures; type: functional, organism-based
T2 sequence (Q05769 whole entry): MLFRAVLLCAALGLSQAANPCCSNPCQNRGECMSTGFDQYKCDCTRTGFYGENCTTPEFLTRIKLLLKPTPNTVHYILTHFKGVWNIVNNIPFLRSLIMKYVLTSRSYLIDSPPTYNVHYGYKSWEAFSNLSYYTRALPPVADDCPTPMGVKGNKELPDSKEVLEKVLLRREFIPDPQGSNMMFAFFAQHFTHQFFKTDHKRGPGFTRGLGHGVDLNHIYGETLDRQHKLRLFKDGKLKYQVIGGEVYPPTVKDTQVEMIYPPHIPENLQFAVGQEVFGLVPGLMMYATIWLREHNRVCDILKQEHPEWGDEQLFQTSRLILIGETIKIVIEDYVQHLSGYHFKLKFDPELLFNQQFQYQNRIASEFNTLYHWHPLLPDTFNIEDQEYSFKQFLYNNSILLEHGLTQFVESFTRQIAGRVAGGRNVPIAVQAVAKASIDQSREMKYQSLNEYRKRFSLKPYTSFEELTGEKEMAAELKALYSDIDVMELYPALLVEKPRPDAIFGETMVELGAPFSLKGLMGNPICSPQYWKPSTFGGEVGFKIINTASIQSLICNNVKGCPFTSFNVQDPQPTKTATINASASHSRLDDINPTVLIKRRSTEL

[5] = Oral bioavailability in Sprague Dawley rat at 10 mg/kg measured up to 24 hrs by LC-MS analysis; type: ADME, organism-based; settings: in vivo
[6] = system: Mus musculus; test: Chemo-protective activity in C57BL/6J mouse model of spontaneous GI-tract tumor Apc-min assessed as 18F-FDG uptake in ileum at 300 mg/kg, po incorporated into chow diet administered daily for 2 weeks and measured after 14 days by ex vivo PET imaging analysis relative to control; type: functional
[7] = Oral bioavailability in C57BL/6J mouse at 10 mg/kg measured up to 24 hrs by LC-MS analysis; type: ADME, organism-based; settings: in vivo
[8] = target: T3, Prostaglandin G/H synthase 2 (Homo sapiens) (UniProt P35354)
T3 sequence (whole entry): T1 sequence (P35354 whole entry)
Description: Protein occupancy at human recombinant COX-2 assessed as dissociation half life

[9] = system: Mus musculus; test: Antitumor activity in C57BL/6J mouse model of spontaneous GI-tract tumor Apc-min assessed as reduction in total ileum polyp number at 30 to 300 mg/kg, po administered as suspension for 10 weeks; type: functional, organism-based; settings: dose 30-300 mg/kg
[10] = Oral bioavailability in Cynomolgus monkey at 10 mg/kg measured up to 24 hrs by LC-MS analysis; type: ADME, organism-based, Macaca fascicularis; settings: in vivo
[11] = Ratio of drug concentration in C57BL/6J mouse colon to plasma at 10 mg/kg, po measured after 4 hr by liquid chromatographic triple-quadrupole mass spectrometric method; type: ADME, organism-based; settings: C57BL/6J, colon / plasma
[12] = Half life in human liver microsomes; type: ADME, Microsome
[13] = Equilibrium solubility of compound in FASSIF at pH 6.5; type: physicochemical
[14] = Clearance in C57BL/6J mouse at 2 mg/kg, iv measured after 0.08 to 24 hrs; type: ADME, organism-based; settings: in vivo, time 0.08-24 hrs
[15] = Tmax in C57BL/6J mouse at 10 mg/kg, po administered as cassette dose measured at 4 hrs by liquid chromatographic triple-quadrupole mass spectrometric method; type: ADME, organism-based; settings: in vivo
[16] = system: Mus musculus; test: Antitumor activity in po dosed C57BL/6J mouse model of spontaneous GI-tract tumor Apc-min assessed as reduction in total ileum polyp area administered as suspension for 10 to 12 weeks; type: functional, organism-based; settings: time 10-12 weeks
[17] = Half life in mouse hepatocytes; type: ADME, cell-based, Hepatocyte
[18] = Drug concentration in C57BL/6J mouse colon at 10 mg/kg, po administered as cassette dose measured at 4 hrs by LC/MS/MS analysis; type: ADME, organism-based; settings: read-out: Ct
[19] = target: T2, Prostaglandin G/H synthase 2; test: In vivo inhibition of COX2 in po dosed C57BL/6J mouse model of spontaneous GI-tract tumor Apc-min assessed as chemopreventive effect by measuring reduction in polyp area and relevant plasma exposures; type: functional, organism-based
[20] = target: T4, Prostaglandin G/H synthase 1 (Homo sapiens, UniProt P23219); test: Inhibition of human recombinant COX-1 assessed as reduction in peroxidase activity using arachidonic acid as substrate preincubated for 60 mins followed by substrate addition for 2 secs by ADPH based fluorometric analysis; type: ADME
T4 sequence (P23219 whole entry): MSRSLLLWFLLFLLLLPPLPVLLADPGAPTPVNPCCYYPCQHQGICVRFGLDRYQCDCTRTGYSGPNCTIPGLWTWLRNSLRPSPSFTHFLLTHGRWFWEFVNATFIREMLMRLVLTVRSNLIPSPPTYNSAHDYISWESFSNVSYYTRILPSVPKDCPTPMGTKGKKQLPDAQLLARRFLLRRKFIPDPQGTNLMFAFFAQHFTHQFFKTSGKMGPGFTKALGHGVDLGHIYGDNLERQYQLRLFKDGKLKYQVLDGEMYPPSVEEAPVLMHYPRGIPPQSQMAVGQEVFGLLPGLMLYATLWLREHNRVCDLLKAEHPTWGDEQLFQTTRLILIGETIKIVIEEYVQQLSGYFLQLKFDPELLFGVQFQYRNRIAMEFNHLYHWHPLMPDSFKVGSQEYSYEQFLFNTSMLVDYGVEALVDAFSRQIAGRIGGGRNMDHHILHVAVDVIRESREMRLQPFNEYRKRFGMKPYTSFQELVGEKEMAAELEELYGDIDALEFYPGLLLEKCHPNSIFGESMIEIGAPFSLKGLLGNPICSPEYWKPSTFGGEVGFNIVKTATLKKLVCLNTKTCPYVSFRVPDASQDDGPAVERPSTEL

[21] = system: Mus musculus; test: Chemo-protective activity in po dosed C57BL/6J mouse model of spontaneous GI-tract tumor Apc-min assessed as reduction in 18F-FDG uptake in ileum incorporated into chow diet administered daily for 2 weeks and measured after 14 days by ex vivo PET imaging analysis; type: functional, organism-based
[22] = target: T4, Prostaglandin G/H synthase 1; test: Inhibition of COX1 (unknown origin) expressed in HEK293 TRex cells assessed as reduction in PGE2 production using arachidonic acid as substrate preincubated for 60 mins followed by substrate addition for 1 hr in presence of 10% FBS by RapidFire High-Throughput Mass Spectrometry; type: ADME, cell-based, HEK293-T-REx

`CCCOc1nc(OCC(C)(C)O)c(-c2ccc(S(C)(=O)=O)cc2)cc1CO` showed an IC50 [1] of 600 nM, an IC50 [2] of 2340 nM and an IC50 [3] of 840 nM. It also gave an IC50 [4] of 2380 nM, a bioavailability [5] of 2.3% and an Activity [6] of 35.6%. For the same molecule, the bioavailability [7] was 4.25%, the T1/2 [8] was 534 min and the Activity [9] was “Active”. For the same molecule, the bioavailability [10] was 20%, the Kp at 4 h [11] was 1280 and the half-life [12] was > 184 min. The solubility thermodynamic [13] was 25 µM (≈ 10.2 µg/mL), the clearance [14] was 92.7 mL/min/kg and the Tmax [15] was 15 min. The Activity [16] was “Dose-Dependent Effect”, the half-life [17] was 3 min and the concentration at 4 h [18] was 5340 ng/g. For the same molecule, the IC50 [19] was 35 nM, the IC50 [20] was > 50000 nM and the Activity [21] was “Active”. For the same molecule, the IC50 [22] was > 50000 nM.
